The target of assay [1] is T1, IDO1 (Homo sapiens, UniProt P14902). The experiment in a line: IDO1 Cellular Assay in HeLa Cells Stimulated with IFNγ (B). It counts as cell-based. Also on record: endogenous in cells; host or cells: HeLa cells stimulated with IFNγ. As to conditions: about 48 h, first value of cell, read-out: IDO hela (B) cell IC50. As for the experimental part: HeLa cells were cultured in complete HeLa culture medium (90% EMEM, 10% heat-inactivated fetal bovine serum) and expanded to about 1×10^9 cells. The cells were then collected and frozen down at 1×10^7 cells/vial in 1 mL frozen medium (90% complete HeLa culture medium, 10% DMSO).
T1 sequence (P14902 whole entry): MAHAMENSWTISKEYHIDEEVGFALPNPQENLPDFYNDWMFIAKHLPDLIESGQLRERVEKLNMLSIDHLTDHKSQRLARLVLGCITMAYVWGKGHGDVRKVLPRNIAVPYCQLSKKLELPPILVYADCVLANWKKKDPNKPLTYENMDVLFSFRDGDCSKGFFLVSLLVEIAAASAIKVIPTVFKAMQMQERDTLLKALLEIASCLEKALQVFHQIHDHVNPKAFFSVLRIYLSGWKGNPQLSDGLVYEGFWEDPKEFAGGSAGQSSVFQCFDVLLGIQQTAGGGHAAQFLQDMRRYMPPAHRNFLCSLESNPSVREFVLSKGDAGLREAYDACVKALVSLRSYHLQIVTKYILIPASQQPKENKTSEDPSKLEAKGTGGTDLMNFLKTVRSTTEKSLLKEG
Compounds to be tested were serially diluted in ten 3-fold steps in DMSO starting from 10 mM DMSO stocks in Echo low volume plate(s). Compound dilutions or DMSO alone were then dispensed from the dilution plate(s) into Greiner black 384-well assay plate(s) (catalog #781086, 50 nL/well) using an Echo 550 acoustic liquid handler (Labcyte).
Frozen HeLa cells were thawed and transferred into HeLa assay medium (99% complete HeLa culture medium, 1% Pen/Strep) with 20 mL medium/vial of cells. […] The cells were then counted and adjusted to a density of 2×10^5 cells/mL in HeLa assay medium. […]
HeLa cells with and without IFNγ were dispensed to the respective wells of 384-well assay plates containing the compounds. […] The resulting fluorescence was measured in a Spectramax plate reader (Molecular Devices) with a 400 nm excitation filter and a 510 nm emission filter.
The fluorescence intensity of each well was corrected for the background observed in wells with non-IFNγ-treated cells and was expressed as a fraction of the intensity observed in wells of IFNγ-treated cells and DMSO only. […]

The target of assay [2] is T1, IDO1. The experiment in a line: IDO1 Human Whole Blood Assay (D). It counts as cell-based. The arrangement: from tissue; host or cells: human whole blood from healthy donors, stimulated with LPS and IFNγ. The settings on record: LPS and IFNγ, 18 h, read-out: IDO WB IC50, nM (D). As for the experimental part: Compounds to be tested were serially diluted in ten 3-fold steps in DMSO starting from 10 mM. 3 μL of compound dilutions or DMSO alone were then dispensed from the dilution plate into a polypropylene 96-well assay plate containing 97 μL of RPMI using an Echo 555 acoustic liquid handler (Labcyte). LPS and IFNγ was prepared in RPMI to a 10× of final conc. (1000 ng/mL), final concentration is 100 ng/mL.
Human whole blood was drawn in sodium heparin coated tubes from healthy internal donors. 240 μL of blood was transferred to each of the wells of a v-bottom 96 well plate. 30 μL of a compound was transferred from intermediate dilution plate, and incubated for 15 min. 30 μL of the LPS and IFNγ solution prepared above was then transferred to a blood sample and mixed thoroughly. Plate was covered with breathable membrane and incubated at 37° C. for overnight (18 h).
On day 2 isotope labeled standard of kynurenine and tryptophan was made in water at 10× concentration and 30 μL was added to the blood sample at 3 μM final concentration. […] 20 μL of supernatant was carefully transferred to a 384 well plate contain 40 μL of 0.1% formic acid in water and analyzed by LC/MS/MS.
LC/MS/MS analyses were performed using Thermo Fisher's LX4-TSQ Quantum Ultra system. […] Compounds were titrated and IC50 values were calculated by 4 parameter sigmoidal curve fitting formula.

Structures are written as SMILES. pIC50: −log10 of the molar value.

As for `C[C@@H]1CN(c2cc(Br)cc3[nH]ncc23)CC[C@]12NC(=O)NC2=O` (single isomer, unassigned) [Compound 1-1], at IDO1 [1], the pIC50 (in general, −log10 of the IC50, conventionally taken in molar units) is 7.11. On IDO1 [2], the IC50 – broadly, the point on the concentration scale where inhibition reaches its midpoint – worked out at 345 nM.

`O=C1NC(=O)C2(CCN(c3cc(Cl)cc4[nH]ncc34)CC2)N1` [CC-1]: the negative-log IC50 (pIC50) on IDO1 [1] is 7.01. For the same compound, at IDO1 [2], the IC50 came to 556 nM.

(Values after US20220396577A1, “NOVEL SUBSTITUTED 1,3-8-TRIAZASPIRO[4,5] DECANE-2,4-DIONE COMPOUNDS AS INDOLEAMINE 2,3-DIOXYGENASE (IDO) AND/OR TRYPTOPHAN 2,3-DIOXYGENASE (TDO) INHIBITORS” (Merck Sharp & Dohme LLC, priority 2019, published 2022).)
